Data: patent US20080167444A1, “Abc Transporter Inhibitor” (priority 2004, published 2008)
Several values for one entry are separate records, joined by “and”; a condition that tells them apart may be missing. Equal values may be shown once.

Legend:
PDR5 protein [1] = biological target: T1, PDR5 protein (Saccharomyces cerevisiae, UniProt P33302); test: Growth inhibition of yeast with overexpressed PDR5 in the presence of cycloheximide or cerulenin (absorbance at 660 nm); format: cell-based; settings: for IC50: IC50 (concentration for 50% growth-inhibition), IC50 of cycloheximide or cerulenin, without or with addition of 5 μg/mL enniatin mixture or FK-506; for inhibition of growth of the yeast with overexpressed PDR5: test drug at 5 μg/mL, cycloheximide or cerulenin present, static culture 30° C. 24 hours
T1 construct: expressed in transfected cells; host or cells: Saccharomyces cerevisiae W303 (MAT a Δsyr/erg3::HIS3 Δpdr5::LEU2 Δsnq2::HIS3)
T1 sequence (P33302 whole entry): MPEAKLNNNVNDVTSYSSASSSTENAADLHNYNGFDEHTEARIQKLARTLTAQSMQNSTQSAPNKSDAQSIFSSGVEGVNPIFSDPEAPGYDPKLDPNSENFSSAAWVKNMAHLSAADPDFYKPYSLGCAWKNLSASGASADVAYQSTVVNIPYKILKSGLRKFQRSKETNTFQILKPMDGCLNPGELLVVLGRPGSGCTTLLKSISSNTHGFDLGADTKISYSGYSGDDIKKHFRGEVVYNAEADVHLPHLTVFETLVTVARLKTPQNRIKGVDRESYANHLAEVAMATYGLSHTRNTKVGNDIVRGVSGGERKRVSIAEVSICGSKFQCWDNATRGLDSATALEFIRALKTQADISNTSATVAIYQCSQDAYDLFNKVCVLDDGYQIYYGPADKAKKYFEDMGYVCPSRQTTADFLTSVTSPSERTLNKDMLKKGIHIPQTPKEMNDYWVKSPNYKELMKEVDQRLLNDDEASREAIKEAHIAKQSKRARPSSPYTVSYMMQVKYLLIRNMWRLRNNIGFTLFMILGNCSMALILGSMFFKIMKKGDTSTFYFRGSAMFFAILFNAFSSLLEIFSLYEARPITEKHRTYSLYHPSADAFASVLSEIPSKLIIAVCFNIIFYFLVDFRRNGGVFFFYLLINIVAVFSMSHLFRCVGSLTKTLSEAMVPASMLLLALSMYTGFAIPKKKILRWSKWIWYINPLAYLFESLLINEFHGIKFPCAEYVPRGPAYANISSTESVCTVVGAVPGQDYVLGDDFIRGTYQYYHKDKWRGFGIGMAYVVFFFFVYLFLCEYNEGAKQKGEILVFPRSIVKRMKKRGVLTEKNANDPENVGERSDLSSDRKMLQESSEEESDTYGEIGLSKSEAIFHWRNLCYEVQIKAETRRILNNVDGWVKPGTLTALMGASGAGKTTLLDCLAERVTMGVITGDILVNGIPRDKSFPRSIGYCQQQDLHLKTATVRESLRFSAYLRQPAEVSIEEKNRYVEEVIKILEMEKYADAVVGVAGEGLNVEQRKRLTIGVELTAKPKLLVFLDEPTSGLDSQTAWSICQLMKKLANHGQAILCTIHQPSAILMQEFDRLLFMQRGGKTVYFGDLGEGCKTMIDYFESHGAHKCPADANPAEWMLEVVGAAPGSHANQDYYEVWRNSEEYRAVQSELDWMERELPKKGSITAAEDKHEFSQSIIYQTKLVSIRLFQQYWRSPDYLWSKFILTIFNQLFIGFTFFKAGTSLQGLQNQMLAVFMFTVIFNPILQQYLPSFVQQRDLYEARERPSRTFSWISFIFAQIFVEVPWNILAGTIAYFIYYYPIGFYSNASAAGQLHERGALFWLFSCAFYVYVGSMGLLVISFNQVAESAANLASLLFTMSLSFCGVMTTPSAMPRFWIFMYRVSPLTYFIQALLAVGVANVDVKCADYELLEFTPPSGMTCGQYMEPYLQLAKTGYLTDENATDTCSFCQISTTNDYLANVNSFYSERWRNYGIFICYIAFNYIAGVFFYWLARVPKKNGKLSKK
Description: (§1) Yeast with overexpressed PDR5 by transformation of the host yeast (Saccharomyces cerevisiae W303 (MAT a Δsyr/erg3::HIS3 Δpdr5::LEU2 Δsnq2::HIS3)) with the PDR5 expression vector and the host yeast were inoculated separately in 4 mL each of the minimum medium followed by shaking culture at 30° C. for 12 hours. To a 96-well microtiter plate to which cycloheximide or cerulenin of various concentrations had been added, was added purified enniatin B, B1, D, or enniatin mixture of various concentrations, followed by inoculation of the above-mentioned yeast. The volume per well was adjusted to 200 μL by addition of the minimum medium. After static culture at 30° C. for 24 hours, the extent of growth of yeast was determined for evaluation of the growth-inhibiting activity of the test drug against the yeast with overexpressed PDR5 and against the host yeast. The extent of growth of yeast was determined by measurement of absorbance at 660 nm using a microtiter plate reader (MTP-500; CORONA). The growth-inhibiting activity against the yeast with overexpressed PDR5 and against the host yeast was also determined for immunosuppressor FK-506, the positive control, which is known to inhibit yeast PDR5 protein and human MDR1 protein (P-glycoprotein).

[2] = test system: host yeast (Saccharomyces cerevisiae W303 (MAT a Δsyr/erg3::HIS3 Δpdr5::LEU2 Δsnq2::HIS3)); test: Growth inhibition of the host yeast (PDR5 and SNQ2 deleted); format: cell-based; settings: test drug elevated to 5 μg/mL; static culture 30° C. 24 hours
Description: as §1

PDR5-deleted host yeast = test: Rhodamine 6G accumulation in PDR5-deleted host yeast (fluorescence microscope); format: cell-based, Saccharomyces cerevisiae; settings: drug at final concentration 25 μg/mL; compared with no addition of the drug
Description: (§2) The above-mentioned strain with overexpressed PDR5 and the above-mentioned host yeast were separately subjected to shaking culture at 30° C. for 12 hours in 4 mL of the minimum medium. Then a quantity of yeast corresponding to 1.0×10^6 cells was inoculated to 4 mL of the minimum medium. Enniatin B, B1, D, enniatin mixture, or FK-506 was added to the final concentration of 25 μg/mL, and after shaking culture at 30° C. for 2 hours, 15 μL of rhodamine 6G (1 mg/mL) was added followed by culture under the same conditions for 30 minutes. After culture, the culture was washed twice with 2% glucose solution in PBS (phosphate-buffered saline) and the fluorescence in yeast cells was observed under a fluorescence microscope (Nicon ECLIPSE E400, using G-2A filter).

PDR5 protein [3] = test: Western blotting of PDR5 protein (quantity and stability); format: cell-based, yeast; settings: after addition of the drug
From the text: The effects of enniatin B, B1, D, and enniatin mixture on the quantity of PDR5 protein as the translation product and on the stability of PDR5 protein were investigated by Western blotting of PDR5 protein. After addition of enniatin B, B1, D, or enniatin mixture, quantitative change of PDR5 protein was not observed, which confirmed that apparent inhibition of the function of PDR5 gene product is ascribable neither to inhibition of translation of PDR5 protein nor to reduced stability of the protein through acceleration of decomposition of PDR5 protein.

PDR5 gene = test: PDR5 transcription activity, β-galactosidase (lacZ) reporter downstream of Pdr5 promoter; format: cell-based, yeast; settings: drug at final concentration 25 μg/mL, 8 hours; compared with no addition
Description: The effect of enniatin on expression of PDR5 gene was analyzed based on measurement of the PDR5 transcription activity using β-galactosidase gene as the reporter gene. Yeast, where had been introduced a recombinant plasmid obtained by fusion of β-galactosidase gene (lacZ) in the downstream of Pdr5 promoter, was subjected to shaking culture at 30° C. for 8 hours in 4 mL of YEPD medium, and a quantity of yeast corresponding to 1.0×10^6 cells was inoculated in 4 mL of the medium. At the same time, enniatin B, B1, D, enniatin mixture, or FK-506 was added to the final concentration of 25 μg/mL. After shaking culture at 30° C. for 8 hours, 1.0×10^7 yeast cells were collected. The cells were then suspended in 1 mL of Z buffer solution (60 mM disodium hydrogen phosphate, 40 mM sodium dihydrogen phosphate, 10 mM potassium chloride, 1 mM magnesium sulfate, 50 mM […], pH 7.0). The cell suspension was treated with 45 μL of chloroform and 30 μL of 0.1% sodium dodecyl sulfate at 30° C. for 5 minutes. The suspension was then treated with 200 μL of o-NPG (o-nitrophenyl-β-D-galactopyranoside) of 4 mg/mL at 30° C. for 10 minutes. After reaction was stopped by addition of 500 μL of 1 M sodium carbonate, absorbance at 420 nm was measured to determine the activity of β-galactosidase. The activity of β-galactosidase was calculated using a unit=1000×A420/10 (reaction time). […] Thus it could be confirmed that inhibition of PDR5 function by enniatin B, B1, D, enniatin mixture, or FK-506 is not ascribable to the inhibition of transcription of PDR5 gene.

PDR5 protein [4] = biological target: T1, PDR5 protein; test: Rhodamine 6G accumulation in yeast with overexpressed PDR5 (fluorescence microscope); format: cell-based; settings: drug at final concentration 25 μg/mL, 2 hours, then rhodamine 6G 30 minutes
Description: as §2

SMILES	IC50 (PDR5 protein [1])	inhibition of growth of the host yeast (cytotoxicity) [2]	rhodamine 6G accumulation in PDR5-deleted host yeast (PDR5-deleted host yeast)	quantitative change of PDR5 protein (Western blotting) (PDR5 protein [3])	inhibition of growth of the yeast with overexpressed PDR5 (PDR5 protein [1])	activity of β-galactosidase (PDR5 transcription activity) (PDR5 gene)	rhodamine 6G accumulation in yeast with overexpressed PDR5 (PDR5 protein [4])
C[C@@H]1C[C@@H]([C@H](O)CC2CC(=O)NC(=O)C2)C(=O)[C@@H](C)C1 [Cycloheximide]	462 nM and 434 nM	–	–	–	–	–	–
CC[C@H](C)[C@H]1C(=O)O[C@H](C(C)C)C(=O)N(C)[C@@H](C(C)C)C(=O)O[C@H](C(C)C)C(=O)N(C)[C@@H](C(C)C)C(=O)O[C@H](C(C)C)C(=O)N1C [enniatin B1, Enniatin B1]	–	not observed	rhodamine 6G was accumulated in yeast cells	not observed	completely	not different from that without addition of the drug	accumulated rhodamine 6G
C/C=C/C/C=C/CCC(=O)[C@H]1O[C@H]1C(N)=O [Cerulenin]	1500 nM and 1570 nM	–	–	–	–	–	–
CC(C)[C@H]1C(=O)O[C@H](C(C)C)C(=O)N(C)[C@@H](C(C)C)C(=O)O[C@H](C(C)C)C(=O)N(C)[C@@H](C(C)C)C(=O)O[C@H](C(C)C)C(=O)N1C [enniatin B, Enniatin B]	–	not observed	rhodamine 6G was accumulated in yeast cells	not observed	completely	not different from that without addition of the drug	accumulated rhodamine 6G
CC(C)CC1C(=O)OC(C(C)C)C(=O)N(C)C(C(C)C)C(=O)OC(C(C)C)C(=O)N(C)C(C(C)C)C(=O)OC(C(C)C)C(=O)N1C (centres unmarked) [enniatin D, Enniatin D]	–	not observed	rhodamine 6G was accumulated in yeast cells	not observed	completely	not different from that without addition of the drug	accumulated rhodamine 6G
